Assays:
[1] = Repeated dose pharmacokinetics in human; assay type: in vivo; conditions: for Ratio I/II (AUC Formula I : AUC Formula II) / AUC: human, steady state; for half-life at 10 days: oral, human plasma, repeated dose of Formula II (25-100 mg BID or 200-450 mg QD) for 10 days, read-out: mean apparent terminal elimination half-life; for AUC: plasma, po, read-out: Exposure (expressed as AUC)
Procedure: Subjects received repeated dose (25, 50 and 100 mg BID or 200, 300 and 450 mg QD) of the compound according to Formula II as capsules after a standard breakfast for 10 days.
(§1) Serial blood samples were collected over 12 h (BID regimen) or 24 h (QD regimen) on day 1 and 10 to determine plasma concentrations of the compounds according to Formula II and Formula I using a validated liquid chromatography-mass spectrometry/mass spectrometry (LC-MS/MS) method with a limit of quantification of 1.00 ng/mL for both Formula. PK parameters were assessed using a statistical analysis package (WinNonLin (Pharsight, Sunnyvale, Calif.: CA 94086, USA).
(§2) Mean plasma concentration-time profiles of the compound according to Formula II and the compound according to Formula I were measured.
In order to show the comparative exposures of the two compounds, the AUC of the compounds according to Formula I and the compound according to Formula II were calculated. The AUC value represents the steady state exposure of the compounds after repeated dosing. The ratio of AUC of the compound according to Formula I:AUC of the compound according to Formula II is display in Table VII.

[2] = tested on: hepatocytes of mouse; assay: In vitro metabolism study in hepatocytes, mouse; assay type: in vitro ADME; conditions: mouse hepatocyte suspension, 24 h incubation of 100 μM [14C]-Formula II
Procedure: (§3) Hepatocyte stability (Concentrations of the compound according to Formula II and its main metabolites (as % of total radioactivity) after 24 h incubation of 100 μM [^14C]-Compound according to Formula II in hepatocyte suspension of different species)

[3] = Single dose pharmacokinetics in human; assay type: in vivo; conditions: for Ratio I/II of exposure (AUC Formula I : AUC Formula II) / AUC: human; for half-life: oral, human plasma, single dose (10-200 mg) of Formula II as capsules, read-out: mean apparent terminal elimination half-life; for AUC: plasma, po, capsules, read-out: exposure (expressed as AUC)
Procedure: as §1, with “72” for “12”, “h” for “h (BID regimen) or 24 h (QD regimen) on day 1 and 10”, “ng/mL.” for “ng/mL for both Formula.”
as §2
In order to show the comparative exposures of the two compounds, the AUC of the compounds according to Formula I and the compound according to Formula II were calculated. The AUC value represents the total exposure of the compound in the species after dosing. These values were then expressed as a ratio of AUC of the compound according to Formula I: AUC of the compound according to Formula II in FIG. 4. From this ratio it can clearly be seen that there was a significant difference in exposure to a compound according to Formula I after administration of a compound according to Formula II in human compared to the exposure seen in animals for therapeutically equivalent doses. Without wanting to be bound by theory, it was believed that this difference was related to the difference in the apparent terminal half-life in the different species.

[4] = tested on: hepatocytes of rat; assay: In vitro metabolism study in hepatocytes, rat; assay type: in vitro ADME; conditions: rat hepatocyte suspension, 24 h incubation of 100 μM [14C]-Formula II
Procedure: as §3

[5] = after Formula II 10 mg single dose
[6] = after Formula II 25 mg single dose
[7] = after Formula II 50 mg single dose
[8] = after Formula II 100 mg single dose
[9] = after Formula II 200 mg single dose

half-life at 10 days [1] [h] | AUC ([1]; Formula II 25 mg BID) [ng·h/mL] | AUC ([1]; Formula II 50 mg BID) [ng·h/mL] | AUC ([1]; Formula II 100 mg BID) [ng·h/mL] | AUC ([1]; Formula II 200 mg QD) [ng·h/mL] | AUC ([1]; Formula II 300 mg QD) [ng·h/mL] | AUC ([1]; Formula II 450 mg QD) [ng·h/mL] | In vitro metabolic profile of Formula II (as % of total radioactivity) [2] | half-life [3] [h] | AUC [3, 5] [ng·h/mL] | AUC [3, 6] [ng·h/mL] | AUC [3, 7] [ng·h/mL] | AUC [3, 8] [ng·h/mL] | AUC [3, 9] [ng·h/mL] | In vitro metabolic profile of Formula II (as % of total radioactivity) [4] | SMILES | also measured
22 to 27 | 8660 | 15200 | 41100 | 70000 | 66100 | 102000 | 14% | 21 to 27 | 2890 | 7220 | 14600 | 26900 | 57600 | 12% | Nc1nc2cccc(-c3ccc(CN4CCS(=O)(=O)CC4)cc3)n2n1 [Formula I, 5-[4-(1,1-Dioxothiomorpholin-4-ylmethyl)-phenyl]-[1,2,4]triazolo[1,5-a]pyridin-2-ylamine] | Ratio I/II (AUC Formula I : AUC Formula II) ([1]; Formula II 25 mg BID): 24.4; Ratio I/II (AUC Formula I : AUC Formula II) ([1]; Formula II 50 mg BID): 20.5; Ratio I/II (AUC Formula I : AUC Formula II) ([1]; Formula II 100 mg BID): 18.3; Ratio I/II (AUC Formula I : AUC Formula II) ([1]; Formula II 200 mg QD): 16.1; Ratio I/II (AUC Formula I : AUC Formula II) ([1]; Formula II 300 mg QD): 15.0; Ratio I/II (AUC Formula I : AUC Formula II) ([1]; Formula II 450 mg QD): 10.1; apparent terminal half life in human relative to the other animal species ([3]; human vs other animal species, in vivo): at least 3 fold; Ratio I/II of exposure (AUC Formula I : AUC Formula II) [3, 5]: 22.58; Ratio I/II of exposure (AUC Formula I : AUC Formula II) [3, 6]: 21.81; Ratio I/II of exposure (AUC Formula I : AUC Formula II) [3, 7]: 19.86; Ratio I/II of exposure (AUC Formula I : AUC Formula II) [3, 8]: 15.92; Ratio I/II of exposure (AUC Formula I : AUC Formula II) [3, 9]: 12.8
4 to 11 | 346 | 758 | 2380 | 4450 | 4400 | 10200 | at least 80% | 5 to 8 | 128 | 331 | 735 | 1690 | 4500 | at least 80% | O=C(Nc1nc2cccc(-c3ccc(CN4CCS(=O)(=O)CC4)cc3)n2n1)C1CC1 [Formula II, Cyclopropanecarboxylic acid {5-[4-(1,1-dioxo-thiomorpholin-4-ylmethyl)-phenyl]-[1,2,4]triazolo[1,5-a]pyridin-2-yl}-amide] | In vitro metabolic profile of Formula II (as % of total radioactivity) ([2]; listed as drawing 10): 85%; In vitro metabolic profile of Formula II (as % of total radioactivity) ([4]; listed as drawing 10): 86%

From patent US20160296529A1, “AMINOTRIAZOLOPYRIDINE FOR USE IN THE TREATMENT OF INFLAMMATION, AND PHARMACEUTICAL COMPOSITIONS THEREOF” (priority 2012, published 2016)
